Our source for the IC50 and Ratio IC50 values is ChEMBL document CHEMBL3286296, “Design and synthesis of phenylisoxazole derivatives as novel human acrosin inhibitors” (Bioorg Med Chem Lett, 2014).

Where only a bound is given, the exact number is not on record here.

The target in assay [1] is T1, Acrosin (Homo sapiens, UniProt P10323). In words: Inhibition of human acrosin using N-alpha-benzoyl-L-arginine p-nitroanilide as substrate after 3 hrs by spectrophotometry.
The target in assay [2] is T1, Acrosin. The assay is described as follows: Ratio of ISO-1 IC50 to compound IC50 for human acrosin using N-alpha-benzoyl-L-arginine p-nitroanilide as substrate after 3 hrs by spectrophotometry.
The nature of assay [3]: Inhibition of pig trypsin. Further details: species or system Sus scrofa.

T1 sequence (P10323 20-42 limits assumed): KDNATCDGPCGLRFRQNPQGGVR
T1 sequence (P10323 43-343 limits assumed): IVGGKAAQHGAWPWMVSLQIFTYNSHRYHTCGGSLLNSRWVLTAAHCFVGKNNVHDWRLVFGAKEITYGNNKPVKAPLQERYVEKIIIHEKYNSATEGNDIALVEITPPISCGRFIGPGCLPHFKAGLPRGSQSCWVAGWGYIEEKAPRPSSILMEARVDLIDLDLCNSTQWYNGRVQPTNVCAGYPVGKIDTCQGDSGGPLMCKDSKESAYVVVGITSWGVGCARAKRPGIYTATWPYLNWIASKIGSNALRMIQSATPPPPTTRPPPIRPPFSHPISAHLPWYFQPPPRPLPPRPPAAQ

As for `N=C(N)Nc1ccc(-c2cc(C(=O)Nc3ccc(F)cc3)no2)cc1`, the IC50 on Acrosin [1] was 20.5 µM. `N=C(N)Nc1ccc(-c2cc(C(=O)Nc3ccc(Cl)cc3)no2)cc1`: the IC50 on Acrosin [1] is 26.8 µM. This IC50 and that of the compound before are within 1.5-fold of each other.

On to `Cc1ccc(NC(=O)c2cc(-c3ccc(NC(=N)N)cc3)on2)cc1`, for which the half-inhibitory concentration (IC50) at Acrosin [1] came out at 10.1 µM. This IC50 lies about 2.7-fold lower than the previous one. `N=C(N)Nc1ccc(-c2cc(C(=O)Nc3cccc4ccccc34)no2)cc1`: at Acrosin [1], the IC50 came to 29.9 µM.

With `CCOC(=O)c1cc(-c2ccc(NC(=O)c3ccccc3)cc2)on1`, at Acrosin [1], the IC50 was found to be 460 µM. This IC50 lies about 15-fold higher than the previous one. With `Cc1ccccc1NC(=O)c1cc(-c2ccc(NC(=N)N)cc2)on1`, at Acrosin [1], half-maximal inhibition (IC50) required 14.4 µM.

For `CCOc1ccc(NC(=O)c2cc(-c3ccc(NC(=N)N)cc3)on2)cc1`, it took 6.4 µM to reach half-maximal inhibition against Acrosin [1] (IC50). At Acrosin [1], `CCOC(=O)c1cc(-c2ccc(NC(=O)c3ccccc3Cl)cc2)on1` gave a half-maximal inhibitory concentration (IC50) of 60 µM. Also, at Acrosin [2], the Ratio IC50 is 6. On to `COc1ccccc1NC(=O)c1cc(-c2ccc(NC(=N)N)cc2)on1`, for which, at Acrosin [1], half-maximal inhibition (IC50) was put at 8.4 µM. That is a single-digit micromolar value. `COc1ccc(NC(=O)c2cc(-c3ccc(NC(=N)N)cc3)on2)c(OC)c1`: the results for the IC50 (against Acrosin [1]; in assay [3]) were 1.4 µM and 4200 µM, respectively. On Acrosin [1], `N=C(N)Nc1ccc(-c2cc(C(=O)Nc3ccc(C(F)(F)F)cc3)no2)cc1` yielded an IC50 of 20.3 µM. `Cc1cccc(C)c1NC(=O)c1cc(-c2ccc(NC(=N)N)cc2)on1` returned a half-maximal inhibitory concentration (IC50) against Acrosin [1] of 5.7 µM. Compound `Cc1cccc(NC(=O)c2cc(-c3ccc(NC(=N)N)cc3)on2)c1C` gave an IC50 at Acrosin [1] of 11.5 µM. Compared with the last compound, the IC50 is about 2-fold higher. As for `CCOC(=O)c1cc(-c2ccc(NC(=O)c3ccc(F)cc3)cc2)on1`, inhibition against Acrosin [1] was half-maximal at 140 µM (IC50). The same measure, in the same setting: the value for `Cc1cc(C)cc(NC(=O)c2cc(-c3ccc(NC(=N)N)cc3)on2)c1` was 12.1 µM. Same read-out and setting: the value for `CC(CO)NC(=O)c1cc(-c2ccc(NC(=N)N)cc2)on1` (configuration not stated) was over 100 µM; that for `CC(C)NC(=O)c1cc(-c2ccc(NC(=N)N)cc2)on1` was over 100 µM; that for `CC(C)(C)c1ccc(NC(=O)c2cc(-c3ccc(NC(=N)N)cc3)on2)cc1` was 7.8 µM.

Regarding `CCOC(=O)c1ccc(NC(=O)c2cc(-c3ccc(NC(=N)N)cc3)on2)cc1`, it took 9.3 µM to reach half-maximal inhibition against Acrosin [1] (IC50).

As for `Cc1cccc(NC(=O)c2cc(-c3ccc(NC(=N)N)cc3)on2)c1`, on Acrosin [1], the IC50 amounted to 9.4 µM. The IC50 values of the last two compounds are within 1.5-fold of each other. With `COc1ccc(OC)c(NC(=O)c2cc(-c3ccc(NC(=N)N)cc3)on2)c1`, at Acrosin [1], the IC50 came out at 2.3 µM. On Acrosin [1], `N=C(N)Nc1ccc(-c2cc(C(=O)Nc3ccccc3Br)no2)cc1` came in with an IC50 of 27.9 µM. Still for that read-out and setting: as for `COc1cccc(NC(=O)c2cc(-c3ccc(NC(=N)N)cc3)on2)c1`, the figure is 6.6 µM; as for `N=C(N)Nc1ccc(-c2cc(C(=O)Nc3cccc(Br)c3)no2)cc1`, 14.4 µM; as for `Cc1ccnc(NC(=O)c2cc(-c3ccc(NC(=N)N)cc3)on2)c1`, 21.4 µM. On Acrosin [1], `N=C(N)Nc1ccc(-c2cc(C(=O)Nc3cccc(Cl)c3)no2)cc1` displayed a 50% inhibitory concentration (IC50) of 25.4 µM. Still for that read-out and setting: as for `CCOC(=O)c1cc(-c2ccc(NC(=O)c3ccc(Cl)c(Cl)c3)cc2)on1`, the figure is 240 µM. Take `N=C(N)Nc1ccc(-c2cc(C(=O)Nc3ccccc3)no2)cc1`: at Acrosin [1], the 50% inhibitory concentration (IC50) is 24.6 µM. In turn, `CCOC(=O)c1cc(-c2ccc(NC(=O)c3ccc(Cl)cc3)cc2)on1` came in with an IC50 against Acrosin [1] of 380 µM.

At Acrosin [1], `N#Cc1ccc(NC(=O)c2cc(-c3ccc(NC(=N)N)cc3)on2)cc1` yielded a half-maximal inhibitory concentration (IC50) of 23.9 µM.

In general, IC50 refers to the concentration at which inhibition is half-maximal. Low values mean greater potency in that assay, high ones weaker potency in that assay.
